Legend:
[1] = system: feedback-resistant aspartate kinase; experiment: inhibition of feedback-resistant aspartate kinase by lysine (or analogue)/threonine mixtures; type: biochemical, Corynebacterium glutamicum; conditions: feedback-resistant enzyme of strain DM1725; lysine or analogue 100 mM in mixture with threonine (10 mM)
Text: (§1) The Corynebacterium glutamicum strain DM1725 was produced by multiple untargeted and targeted mutagenesis including genetic engineering methods, selection and mutant selection from C. glutamicum ATCC13032. The strain is resistant to the lysine analogue S-(2-aminoethyl)-L-cysteine and has two identical complete copies of the LysC gene that code for a feedback-resistant aspartate kinase. The two copies are located at the LysC gene site on the chromosome. […] The strain is streptomycin resistant.

[2] = target: T1, aspartate kinase in the wild type (Corynebacterium glutamicum, UniProt P26512); experiment: inhibition of wild type aspartate kinase by lysine (or analogue)/threonine mixtures; type: biochemical; conditions: wild type enzyme; lysine or analogue 100 mM in mixture with threonine (10 mM)
T1 construct: endogenous in cells
T1 sequence (P26512 whole entry): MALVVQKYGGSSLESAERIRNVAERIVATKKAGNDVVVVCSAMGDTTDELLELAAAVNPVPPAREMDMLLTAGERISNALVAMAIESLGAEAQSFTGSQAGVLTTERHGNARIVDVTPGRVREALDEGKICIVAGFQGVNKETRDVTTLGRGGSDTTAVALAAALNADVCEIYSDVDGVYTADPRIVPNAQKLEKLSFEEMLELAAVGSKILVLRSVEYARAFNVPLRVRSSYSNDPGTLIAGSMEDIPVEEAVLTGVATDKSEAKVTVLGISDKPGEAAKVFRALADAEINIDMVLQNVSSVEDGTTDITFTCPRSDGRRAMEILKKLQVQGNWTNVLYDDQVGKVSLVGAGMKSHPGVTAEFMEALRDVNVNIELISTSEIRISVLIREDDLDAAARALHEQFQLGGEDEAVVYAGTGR
T1 sequence (P26512 250-421): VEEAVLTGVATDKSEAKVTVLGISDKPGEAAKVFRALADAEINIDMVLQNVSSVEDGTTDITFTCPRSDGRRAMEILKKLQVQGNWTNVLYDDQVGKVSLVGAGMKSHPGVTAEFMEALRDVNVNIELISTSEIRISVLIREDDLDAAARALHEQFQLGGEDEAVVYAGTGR
Text: as §1

Row | SMILES | inhibition of aspartate kinase [1] | residual activity of aspartate kinase [2] [%]
1 | NCCCC[C@H](N)C(=O)O [lysine] | insensitive to inhibition | 10
2 | NCCSC[C@H](N)C(=O)O [S-(2-aminoethyl)-L-cysteine] | insensitive to inhibition | 10

— US20040067562A1, “Process for the production of L-lysine using coryneform bacteria” (priority 2002, published 2004)
